Assay [1] has as its target T1, Signal transducer and activator of transcription 3 (Homo sapiens, UniProt P40763). The experiment in a line: Binding affinity to STAT3 (unknown origin) expressed in Escherichia coli by CM5 sensor chip immobilization based SPR assay. Background: In SPR one partner is held on a chip, and binding of the other changes the refractive index at the surface.
Assay [2] can be described thus: Binding affinity to STAT3 R595G mutant (unknown origin) expressed in Escherichia coli by CM5 sensor chip immobilization based SPR assay. More on the design: species or system Homo sapiens.
In assay [3] the target is T2, Signal transducer and activator of transcription 5A (Homo sapiens) (UniProt P42229).
T2 sequence (whole entry): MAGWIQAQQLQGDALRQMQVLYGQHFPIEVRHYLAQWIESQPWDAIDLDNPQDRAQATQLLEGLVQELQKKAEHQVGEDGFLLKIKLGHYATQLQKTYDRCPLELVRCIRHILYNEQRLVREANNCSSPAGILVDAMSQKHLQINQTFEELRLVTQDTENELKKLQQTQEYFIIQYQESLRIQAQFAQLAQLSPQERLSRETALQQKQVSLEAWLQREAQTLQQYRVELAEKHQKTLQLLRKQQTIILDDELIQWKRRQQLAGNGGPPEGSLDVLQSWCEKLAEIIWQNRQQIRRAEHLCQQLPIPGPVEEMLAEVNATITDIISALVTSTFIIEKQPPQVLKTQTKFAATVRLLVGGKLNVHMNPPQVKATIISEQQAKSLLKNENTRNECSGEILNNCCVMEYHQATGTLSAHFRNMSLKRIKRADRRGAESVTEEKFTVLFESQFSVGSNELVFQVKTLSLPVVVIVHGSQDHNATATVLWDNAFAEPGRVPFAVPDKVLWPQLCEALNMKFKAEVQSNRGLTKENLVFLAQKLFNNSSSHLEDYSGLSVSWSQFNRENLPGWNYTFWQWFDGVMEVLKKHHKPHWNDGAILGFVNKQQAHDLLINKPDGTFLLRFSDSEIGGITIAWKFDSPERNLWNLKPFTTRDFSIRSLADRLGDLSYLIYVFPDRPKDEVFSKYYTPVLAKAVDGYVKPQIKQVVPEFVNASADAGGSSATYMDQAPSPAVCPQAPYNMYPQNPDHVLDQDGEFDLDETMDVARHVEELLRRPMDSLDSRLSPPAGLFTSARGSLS
The experiment in a line: Inhibition of STAT5 in human MDA-MB-468 cells assessed as reduction in STAT5 phosphorylation at 1 to 30 uM incubated for 24 hrs by Western blot analysis. It is filed as cell-based. To be noted: dose 1-30 µM. (In western blotting, separated proteins are transferred to a membrane and probed.)

In assay [4] the test system is MCF7. Briefly: Antiproliferative activity against human MCF7 cells assessed as reduction in cell growth incubated for 24 hrs by CCK8 assay. The class given is functional, cell-based. To be noted: MCF7, 24 h. In general terms: Tetrazolium dyes change colour on reduction, which living cells bring about.
Assay [5] has as its system MDA-MB-468. Briefly: Antimigratory activity against human MDA-MB-468 cells assessed as reduction in cell migration incubated for 24 hrs by transwell study based analysis. The class given is functional. To be noted: dose 10-30 µM.
Assay [6] has as its target T1, Signal transducer and activator of transcription 3. The experiment in a line: Inhibition of STAT3-dependent transcriptional activity in human HeLa cells transfected with p-Luc-TKS3 assessed as reduction in luciferase expression incubated for 24 hrs by dual luciferase reporter gene assay. It is filed as cell-based.
Assay [7] shares this target. The experiment in a line: Inhibition of STAT3 in human MDA-MB-468 cells assessed as reduction in STAT3 Y705 residue phosphorylation incubated for 24 hrs by Western blot analysis. The class given is cell-based. The following applies: dose 1-30 µM.
For assay [8] the target is unchanged. Briefly: Displacement of fluorescein-labeled pYLPQTV-NH2 from STAT3 SH2 domain (unknown origin) by fluorescence polarization assay.
Assay [9] relates to MDA-MB-468. Briefly: Antiproliferative activity against human MDA-MB-468 cells harboring active STAT3 assessed as reduction in cell growth incubated for 24 hrs by CCK8 assay. The class given is functional, cell-based. The following applies: MDA-MB-468, 24 h.
For assay [10], the species on record is Homo sapiens. The experiment in a line: Selectivity ratio of Kd for STAT3 I643S/Q635G mutant (unknown origin) expressed in Escherichia coli to Kd for wild type STAT3 (unknown origin) expressed in Escherichia coli by CM5 sensor chip immobilization based SPR assay.
For assay [11], the target named is T3, Signal transducer and activator of transcription 1-alpha/beta (Homo sapiens) (UniProt P42224).
T3 sequence (whole entry): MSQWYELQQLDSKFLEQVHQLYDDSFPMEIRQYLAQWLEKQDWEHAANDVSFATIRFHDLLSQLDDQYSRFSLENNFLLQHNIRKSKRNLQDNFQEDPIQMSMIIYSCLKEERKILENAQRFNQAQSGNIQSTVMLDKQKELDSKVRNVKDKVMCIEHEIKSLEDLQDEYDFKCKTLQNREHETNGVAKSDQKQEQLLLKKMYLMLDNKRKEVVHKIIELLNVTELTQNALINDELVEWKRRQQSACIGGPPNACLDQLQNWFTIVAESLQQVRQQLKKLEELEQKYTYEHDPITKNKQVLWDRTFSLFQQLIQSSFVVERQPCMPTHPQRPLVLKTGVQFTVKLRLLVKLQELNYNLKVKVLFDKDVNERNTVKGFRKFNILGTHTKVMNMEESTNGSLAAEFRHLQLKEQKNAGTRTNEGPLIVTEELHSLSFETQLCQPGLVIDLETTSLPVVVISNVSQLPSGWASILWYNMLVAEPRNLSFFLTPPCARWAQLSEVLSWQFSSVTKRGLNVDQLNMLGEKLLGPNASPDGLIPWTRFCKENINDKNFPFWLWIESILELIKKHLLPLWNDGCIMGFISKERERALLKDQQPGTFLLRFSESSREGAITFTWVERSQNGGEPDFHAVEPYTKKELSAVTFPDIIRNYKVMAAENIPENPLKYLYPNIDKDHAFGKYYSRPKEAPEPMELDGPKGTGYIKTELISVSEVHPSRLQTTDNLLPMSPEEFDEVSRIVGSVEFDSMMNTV
The experiment in a line: Inhibition of STAT1 in human MDA-MB-468 cells assessed as reduction in STAT1 phosphorylation at 1 to 30 uM incubated for 24 hrs by Western blot analysis. The following applies: dose 1-30 µM. It is filed as cell-based.

Assay [12] deals with MDA-MB-468. Briefly: Effect on STAT3 expression in human MDA-MB-468 cells at 1 to 30 uM incubated for 24 hrs by Western blot analysis. It is filed as functional, cell-based. To be noted: dose 1-30 µM.
The subject of assay [13] is DU-145. The experiment in a line: Antiproliferative activity against human DU-145 cells harboring active STAT3 assessed as reduction in cell growth incubated for 24 hrs by CCK8 assay. The class given is functional, cell-based. To be noted: DU-145, 24 h.
The nature of assay [14]: Binding affinity to STAT3 K591A/S611G mutant (unknown origin) expressed in Escherichia coli by CM5 sensor chip immobilization based SPR assay. More on the design: species or system Homo sapiens.
A short description of assay [15]: Binding affinity to STAT3 K591A mutant (unknown origin) expressed in Escherichia coli by CM5 sensor chip immobilization based SPR assay. On the set-up: species or system Homo sapiens.
The nature of assay [16]: Binding affinity to STAT3 C712G mutant (unknown origin) expressed in Escherichia coli by CM5 sensor chip immobilization based SPR assay. On the set-up: species or system Homo sapiens.
Assay [17] is described as follows: Binding affinity to STAT3 I643S/Q635G mutant (unknown origin) expressed in Escherichia coli by CM5 sensor chip immobilization based SPR assay. On the set-up: species or system Homo sapiens.
Assay [18] has as its system MDA-MB-231. Briefly: Antiproliferative activity against human MDA-MB-231 cells harboring active STAT3 assessed as reduction in cell growth incubated for 24 hrs by CCK8 assay. The class given is functional, cell-based. The following applies: MDA-MB-231, 24 h.
Assay [19] has as its target T1, Signal transducer and activator of transcription 3. The experiment in a line: Inhibition of STAT3 in human MDA-MB-468 cells assessed as reduction in Bcl-XL expression at 1 to 30 uM incubated for 24 hrs by Western blot analysis. The following applies: dose 1-30 µM. The class given is cell-based.

Calls of active or inactive are those of the source. No cut-off for these calls is given here.

T1 sequence (P40763 whole entry): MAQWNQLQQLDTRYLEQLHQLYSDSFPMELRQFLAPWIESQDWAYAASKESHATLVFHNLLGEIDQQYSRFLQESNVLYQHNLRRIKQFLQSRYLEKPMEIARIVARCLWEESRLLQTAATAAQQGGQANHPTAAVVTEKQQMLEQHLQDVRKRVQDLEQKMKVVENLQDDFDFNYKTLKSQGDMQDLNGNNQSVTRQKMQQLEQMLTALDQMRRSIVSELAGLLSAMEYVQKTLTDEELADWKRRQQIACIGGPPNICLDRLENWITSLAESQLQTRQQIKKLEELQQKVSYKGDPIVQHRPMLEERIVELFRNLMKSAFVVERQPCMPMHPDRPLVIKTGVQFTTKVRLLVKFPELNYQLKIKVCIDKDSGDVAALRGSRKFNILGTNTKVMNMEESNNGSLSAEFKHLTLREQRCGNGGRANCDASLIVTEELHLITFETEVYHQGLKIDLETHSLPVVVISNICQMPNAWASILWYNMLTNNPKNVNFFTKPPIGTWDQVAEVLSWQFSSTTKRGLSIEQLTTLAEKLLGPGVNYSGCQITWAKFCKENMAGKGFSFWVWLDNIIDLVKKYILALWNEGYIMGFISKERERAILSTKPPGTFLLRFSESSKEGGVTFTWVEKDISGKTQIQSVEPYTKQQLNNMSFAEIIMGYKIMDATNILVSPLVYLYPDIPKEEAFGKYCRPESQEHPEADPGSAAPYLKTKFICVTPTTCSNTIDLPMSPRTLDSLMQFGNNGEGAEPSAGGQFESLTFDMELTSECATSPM

For the compound `O=C1c2ccccc2C(=O)c2cc(S(=O)(=O)Nc3ccc(O)cc3)ccc21`, the Activity entry in assay [1] and in assay [5] was “Dose-dependent effect” in each case. Further, the Kd – broadly, the free concentration of one partner at which half of the binding sites on the other are occupied at equilibrium, for simple one-to-one binding – in assay [1] turned out to be 4.59 µM; in assay [2] it was 6.53 µM; in assay [14], 4.8 µM; in assay [15] it was 3.84 µM; in assay [16], 18.5 µM; in assay [17], 22.7 µM. Further, the inhibition result in assay [3], in [8], in [11] and in [19] was “Active” throughout. The IC50 (as a rule, the concentration needed to halve the response being measured) in assay [4] worked out at 134 µM; in assay [6] it was 12.5 µM; in assay [9] it was 5.1 µM; in assay [13], 63.8 µM; in assay [18], 13.8 µM. In addition, the inhibition entry in assay [6] and in assay [7] was “Dose-dependent effect” each time. Also, the Selectivity ratio in assay [10] came to 4. In assay [12], the outcome was inactive.

The values above are taken from ChEMBL document CHEMBL4715784, “Screening and biological evaluation of a novel STAT3 signaling pathway inhibitor against cancer” (Bioorg Med Chem Lett, 2016).
